Assay results as given in publication PMC6669322, “Small Molecule Binding to Alzheimer Risk Factor CD33 Promotes Aβ Phagocytosis” (iScience, 2019).

Molecular target: T1, CD33 S131A (Homo sapiens, UniProt P20138, S131A)
T1 construct: human CD33 ORF (NM_001772.3), lacking its signal peptide; expressed in transfected cells; host or cells: HEK293T, transient, pT8-SNAP vector
Assay: SNAP-tag homogeneous time-resolved fluorescence binding assay, CD33 S131A
Conditions: S131 mutated to alanine, in words
Experimental: We then used our structural data to design mutations of key residues interacting with P22 to assess which interactions were the most important for binding affinity. The residues were mutated into alanine, and the effect of these mutations on P22 binding affinity was assessed using a SNAP-tag homogeneous time-resolved fluorescence binding assay (see Transparent Methods and Figures 3E–3G). The R119A mutation, which destroys the salt bridge between P22 and CD33, was one of the most detrimental to binding (>30-fold loss) (Figure 2C and Table S4). […]
HEK293T cells were cultured in DMEM (ThermoFisher Scientific # 11965092) containing 10% FBS (Hyclone # SH30070.03) and 1% Penicillin-Streptomycin (ThermoFisher Scientific # 15140122) and transfected using Fugene HD (Promega # E2312) in 10 cm plates. […] The cells were counted, centrifuged and resuspended in PBS at a concentration of 1,000 cells/μL and 10 μL were plated into each well. […] Non-specific binding was assessed by competition with 100 μM of the non-labeled P22, as well as in control (Snap-tagged dopamine D2R receptor)-transfected cells.
Fluorescence was read with a PHERAstar plate reader using an excitation of 337 nm and emissions of 620 and 665 nm. […]

T1 sequence (P20138 18-364 S131A): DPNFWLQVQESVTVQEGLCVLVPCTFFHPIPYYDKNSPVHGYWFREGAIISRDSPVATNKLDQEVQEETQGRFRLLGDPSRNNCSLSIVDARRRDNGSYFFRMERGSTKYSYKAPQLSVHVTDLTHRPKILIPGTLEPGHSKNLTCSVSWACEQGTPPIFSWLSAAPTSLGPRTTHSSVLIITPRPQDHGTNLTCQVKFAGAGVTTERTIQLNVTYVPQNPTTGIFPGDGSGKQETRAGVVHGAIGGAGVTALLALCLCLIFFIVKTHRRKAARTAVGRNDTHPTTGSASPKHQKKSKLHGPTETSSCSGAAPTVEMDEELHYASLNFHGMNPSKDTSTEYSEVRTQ

Cc1cc(C(=O)NC[C@@H](O)[C@@H](O)[C@@H]2O[C@@](OC[C@H]3O[C@@H](O[C@H]4[C@H](O)[C@@H](O)[C@H](OCCN)O[C@@H]4CO)[C@H](O)[C@@H](O)[C@H]3O)(C(=O)O)C[C@H](O)[C@H]2NC(=O)Cn2cc(C3CCCCC3)nn2)cc(C)c1O [P22, β-D-Glucopyranoside, 2-aminoethyl O-[N-[2-(4-cyclohexyl-1H-1,2,3-triazol-1-yl)acetyl]-9-deoxy-9-[(4-hydroxy-3,5-dimethylbenzoyl)amino]-α-neuraminosyl] (2→6)-O-β-D-galactopyranosyl-(1→4)-]
impact of mutation on P22 binding affinity: little to no significant impact
